Source: ChEMBL document CHEMBL1201862, “PubChem BioAssay data set” (2004)
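Test compounds were applied to cells in 96-well plates for 48 hours at 5 doses. GI50 is the concentration that inhibits growth by half.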 Activity calls are given as the source filed them. Cut-off read from the data, not from the text of the source: active = GI50 up to about 1.1 µM and inactive = higher.

What was measured:
Assay in all cases: inhibition of tumour cell growth, NCI panel, 48 h
[1] = system: SF-268
[2] = system: A549
[3] = system: MDA-N
[4] = system: KM12
[5] = system: SNB-19
[6] = system: OVCAR-3
[7] = system: SF-295
[8] = system: HT-29
[9] = system: SNB-75
[10] = system: UACC-62
[11] = system: IGROV-1
[12] = system: NCI-H460
[13] = system: PC-3
[14] = system: COLO 205
[15] = system: EKVX
[16] = system: HOP-62
[17] = system: UO-31
[18] = system: SW-620
[19] = system: SK-MEL-2
[20] = system: A498

Measured: GI50

Cc1cs/c(=N/c2ccccc2)n1CCC(O)(P(=O)(O)O)P(=O)(O)O
inactive: [1] > 100 µM | [2] > 100 µM | [3] > 100 µM | [4] > 100 µM | [5] > 100 µM | [6] > 100 µM | [7] > 100 µM | [8] > 100 µM | [9] > 100 µM | [10] > 100 µM | [11] > 100 µM | [12] 90.6 µM | [13] > 100 µM | [14] > 100 µM | [15] > 100 µM | [16] > 100 µM | [17] > 100 µM

COC(=O)C1=C(C)NC(=S)NC1c1ccc(N(CCCl)CCCl)cc1Cl (stereo not given)
inactive: [1] 23.9 µM | [2] 8.2 µM | [4] 19.6 µM | [5] 49 µM | [6] 22.6 µM | [7] 19.4 µM | [8] 32.5 µM | [18] 33 µM | [9] > 54.6 µM | [10] 3.05 µM | [11] 29.4 µM | [12] 22 µM | [13] 20.9 µM | [14] 25.3 µM | [15] 2.11 µM | [19] 24.2 µM | [16] 73.6 µM | [17] 35.8 µM

CC(=O)OCC1OC(SC2OC(COC(C)=O)C(OC(C)=O)C(OC(C)=O)C2OC(C)=O)C(OC(C)=O)C(OC(C)=O)C1OC(C)=O (stereo not given)
inactive: [1] > 100 µM | [2] > 100 µM | [3] > 100 µM | [20] 54.1 µM | [4] > 100 µM | [5] > 100 µM | [6] > 100 µM | [7] > 100 µM | [8] > 100 µM | [18] > 100 µM | [9] > 100 µM | [10] > 100 µM | [11] > 100 µM | [12] > 100 µM | [14] > 100 µM | [15] > 100 µM | [16] > 100 µM | [17] > 100 µM

N#Cc1c(C#N)c(-c2ccco2)n(/N=C/c2ccco2)c1N
inactive: [1] 28.2 µM | [2] 47.5 µM | [20] 27.6 µM | [4] > 100 µM | [5] 24.9 µM | [6] > 100 µM | [7] 21.9 µM | [8] > 100 µM | [18] > 100 µM | [9] 7.29 µM | [10] > 100 µM | [11] 35.6 µM | [12] > 100 µM | [13] > 100 µM | [14] > 100 µM | [15] 20.1 µM | [19] > 100 µM | [16] 28.1 µM | [17] > 100 µM

c1ccc([B-]2(c3ccccc3)OCCc3cccc[n+]32)cc1
inactive: [1] 97.5 µM | [2] 84.9 µM | [3] 50.2 µM | [20] 19.6 µM | [4] 96.4 µM | [5] > 100 µM | [6] 51.8 µM | [7] 67 µM | [8] 87.1 µM | [18] 51.9 µM | [10] 58.3 µM | [11] 66.1 µM | [12] 60.3 µM | [13] 18.5 µM | [14] 26.2 µM | [15] 91.8 µM | [19] 75.9 µM | [16] > 100 µM | [17] 23.7 µM

CCOC(=O)CN1C(=O)C(=O)N(c2ccc(OC)c3ccccc23)C1=O
inactive: [1] > 100 µM | [2] > 100 µM | [3] > 100 µM | [4] > 100 µM | [5] > 100 µM | [6] > 100 µM | [7] > 100 µM | [8] > 100 µM | [18] > 100 µM | [9] > 100 µM | [10] > 100 µM | [13] > 100 µM | [14] > 100 µM | [15] > 100 µM | [19] > 100 µM | [16] 68.5 µM | [17] 34.6 µM

CCOP(=O)(OCC)C(c1ccccc1)N(C(=O)NC(F)(F)F)c1cccc(F)c1 (stereo not given)
inactive: [1] > 100 µM | [2] > 100 µM | [3] > 100 µM | [4] > 100 µM | [5] > 100 µM | [6] > 100 µM | [7] > 100 µM | [8] > 100 µM | [18] > 100 µM | [9] > 100 µM | [11] 6.93 µM | [12] > 100 µM | [13] 45.8 µM | [14] > 100 µM | [15] 94.8 µM | [16] > 100 µM | [17] 58.6 µM

Cc1cn(C2CC(N(O)C(N)=O)C(CO)O2)c(=O)[nH]c1=O (stereo not given)
inactive: [1] > 100 µM | [2] > 100 µM | [3] > 100 µM | [20] > 100 µM | [4] > 100 µM | [5] > 100 µM | [6] > 100 µM | [7] > 100 µM | [8] > 100 µM | [18] > 100 µM | [10] > 100 µM | [13] > 100 µM | [14] > 100 µM | [19] > 100 µM | [16] > 100 µM | [17] > 100 µM

CC(C)(C)CNCCCNc1ccc(Cl)cc1
inactive: [1] 65.6 µM | [2] > 100 µM | [3] 46 µM | [20] 14.8 µM | [4] 36 µM | [5] > 100 µM | [7] 17.1 µM | [8] 20.2 µM | [18] > 100 µM | [10] 17.2 µM | [11] 58.1 µM | [12] 37.2 µM | [13] 51.3 µM | [14] 21 µM | [15] 48.6 µM | [19] 24 µM | [16] 97.1 µM | [17] 61.2 µM

N/N=C1/CCCc2nonc21
inactive: [1] > 100 µM | [2] > 100 µM | [3] > 100 µM | [4] > 100 µM | [6] > 100 µM | [7] > 100 µM | [8] > 100 µM | [18] > 100 µM | [10] > 100 µM | [11] > 100 µM | [12] > 100 µM | [13] > 100 µM | [14] > 100 µM | [15] > 100 µM | [19] > 100 µM | [16] > 100 µM

CC(=O)C1=C(C)N(c2ccc(C)cc2)C2(O)C3=C(C(=O)c4ccccc4C3=O)C(O)=CC12Cl (stereo not given)
inactive: [1] 23.6 µM | [2] 17.5 µM | [20] 3.15 µM | [4] 5.37 µM | [5] 12.8 µM | [6] 4.76 µM | [7] 5.81 µM | [8] 22.3 µM | [18] 9.86 µM | [9] 21.9 µM | [10] 5.11 µM | [11] 11.1 µM | [12] 20.9 µM | [13] 8.85 µM | [14] 27.5 µM | [15] 54.1 µM | [19] 8.53 µM | [16] 32.2 µM | [17] 11.1 µM

Cc1nc(N)sc1C(=O)Nc1nc[nH]n1
inactive: [1] > 100 µM | [2] > 100 µM | [3] > 100 µM | [4] > 100 µM | [5] > 100 µM | [6] > 100 µM | [7] > 100 µM | [8] > 100 µM | [18] > 100 µM | [10] > 100 µM | [11] > 100 µM | [12] > 100 µM | [13] > 100 µM | [14] > 100 µM | [15] > 100 µM | [19] > 100 µM | [16] > 100 µM | [17] > 100 µM

O=[N+]([O-])C(/C=N/Nc1ccccc1)/C=N/Nc1ccccc1
inactive: [1] > 100 µM | [2] > 100 µM | [20] > 100 µM | [4] > 100 µM | [5] > 100 µM | [6] > 100 µM | [7] > 100 µM | [8] > 100 µM | [18] > 100 µM | [9] > 100 µM | [10] > 100 µM | [11] > 100 µM | [12] > 100 µM | [14] > 100 µM | [15] > 100 µM | [19] > 100 µM | [16] > 100 µM | [17] > 100 µM

CC(Oc1ccc(Cl)cc1Cl)C(=O)NN1C(=O)CC(=O)N(c2ccccc2)C1=S (stereo not given)
inactive: [1] 95.1 µM | [2] 47.6 µM | [20] 26.9 µM | [4] 18.1 µM | [5] 66.4 µM | [6] 42.5 µM | [7] 43.4 µM | [8] 70.1 µM | [18] 53.1 µM | [9] 54.1 µM | [10] 37.5 µM | [11] 55.3 µM | [12] 62.8 µM | [13] 40.5 µM | [14] 33.7 µM | [15] 69.5 µM | [19] 42.2 µM | [16] 56.2 µM | [17] 64.7 µM

O=S1(=O)OCCOS(=O)(=O)C1S(=O)(=O)c1ccc2ccccc2c1
inactive: [2] > 100 µM | [3] > 100 µM | [4] > 100 µM | [5] > 100 µM | [6] > 100 µM | [7] > 100 µM | [8] > 100 µM | [18] > 100 µM | [11] > 100 µM | [12] > 100 µM | [13] > 100 µM | [14] > 100 µM | [15] > 100 µM | [19] > 100 µM | [16] > 100 µM | [17] > 100 µM
